Assays:
[1] = Antagonist activity at CRTh2 in human peripheral blood assessed as inhibition of PGD2-induced eosinophil shape change at room temperature by flow cytometry
[2] = Inhibition of CRTH2 receptor-mediated chemotaxis in human basophils

| IC50 [1] | IC50 [2] | SMILES |
| --- | --- | --- |
| 18 nM | – | Cc1c(-c2cn(CC(C)(C)C)c(=O)c3ccccc23)c2cc(F)ccc2n1CC(=O)O |
| 3 nM | – | Cc1c(-c2cn(CCCC(F)(F)F)c(=O)c3ccccc23)c2cc(F)ccc2n1CC(=O)O |
| 19 nM | – | Cc1c(-c2cn(CC(F)(F)F)c(=O)c3ccccc23)c2cc(F)ccc2n1CC(=O)O |
| 8 nM | 1.2 nM | Cc1c(-c2cn(C(C)C)c(=O)c3ccccc23)c2cc(F)ccc2n1CC(=O)O |
